Results: article PMC10590419, “Structural and mechanistic insights into the inhibition of respiratory syncytial virus polymerase by a non-nucleoside inhibitor” (Communications Biology, 2023)

Tests used:
[1] = biological target: Human RNA polymerase II (Homo sapiens, UniProt P24928+P30876); experiment: RNA polymerase II DdRp activity (HeLa nuclear extract); format: biochemical; settings: RNA Pol II
[2] = in vitro; settings: human
[3] = test system: PIV-1 (recombinant Washington/20993/1964-derived strain encoding GFP); format: cell-based, parainfluenza virus type 1
[4] = in vitro; settings: rhesus monkey
[5] = biological target: T1, RSV L+P complex (Human respiratory syncytial virus A, UniProt P28887); experiment: Surface plasmon resonance assay; format: binding, Human RSV (strain A2); settings: SPR, 37°C
[6] = biological target: T1, RSV L+P complex; experiment: Thermal shift assay (Prometheus NT.48); format: binding, Human RSV (strain A2); settings: read-out: increase in melting temperature (Tm)

T1 sequence (P03421 whole entry): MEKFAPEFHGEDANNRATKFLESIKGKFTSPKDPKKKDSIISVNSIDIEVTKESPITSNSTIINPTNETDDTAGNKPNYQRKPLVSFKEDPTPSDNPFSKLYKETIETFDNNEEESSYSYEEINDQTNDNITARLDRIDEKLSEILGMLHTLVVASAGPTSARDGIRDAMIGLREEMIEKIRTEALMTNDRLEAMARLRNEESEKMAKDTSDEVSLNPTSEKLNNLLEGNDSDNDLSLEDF
T1 sequence (P28887 whole entry): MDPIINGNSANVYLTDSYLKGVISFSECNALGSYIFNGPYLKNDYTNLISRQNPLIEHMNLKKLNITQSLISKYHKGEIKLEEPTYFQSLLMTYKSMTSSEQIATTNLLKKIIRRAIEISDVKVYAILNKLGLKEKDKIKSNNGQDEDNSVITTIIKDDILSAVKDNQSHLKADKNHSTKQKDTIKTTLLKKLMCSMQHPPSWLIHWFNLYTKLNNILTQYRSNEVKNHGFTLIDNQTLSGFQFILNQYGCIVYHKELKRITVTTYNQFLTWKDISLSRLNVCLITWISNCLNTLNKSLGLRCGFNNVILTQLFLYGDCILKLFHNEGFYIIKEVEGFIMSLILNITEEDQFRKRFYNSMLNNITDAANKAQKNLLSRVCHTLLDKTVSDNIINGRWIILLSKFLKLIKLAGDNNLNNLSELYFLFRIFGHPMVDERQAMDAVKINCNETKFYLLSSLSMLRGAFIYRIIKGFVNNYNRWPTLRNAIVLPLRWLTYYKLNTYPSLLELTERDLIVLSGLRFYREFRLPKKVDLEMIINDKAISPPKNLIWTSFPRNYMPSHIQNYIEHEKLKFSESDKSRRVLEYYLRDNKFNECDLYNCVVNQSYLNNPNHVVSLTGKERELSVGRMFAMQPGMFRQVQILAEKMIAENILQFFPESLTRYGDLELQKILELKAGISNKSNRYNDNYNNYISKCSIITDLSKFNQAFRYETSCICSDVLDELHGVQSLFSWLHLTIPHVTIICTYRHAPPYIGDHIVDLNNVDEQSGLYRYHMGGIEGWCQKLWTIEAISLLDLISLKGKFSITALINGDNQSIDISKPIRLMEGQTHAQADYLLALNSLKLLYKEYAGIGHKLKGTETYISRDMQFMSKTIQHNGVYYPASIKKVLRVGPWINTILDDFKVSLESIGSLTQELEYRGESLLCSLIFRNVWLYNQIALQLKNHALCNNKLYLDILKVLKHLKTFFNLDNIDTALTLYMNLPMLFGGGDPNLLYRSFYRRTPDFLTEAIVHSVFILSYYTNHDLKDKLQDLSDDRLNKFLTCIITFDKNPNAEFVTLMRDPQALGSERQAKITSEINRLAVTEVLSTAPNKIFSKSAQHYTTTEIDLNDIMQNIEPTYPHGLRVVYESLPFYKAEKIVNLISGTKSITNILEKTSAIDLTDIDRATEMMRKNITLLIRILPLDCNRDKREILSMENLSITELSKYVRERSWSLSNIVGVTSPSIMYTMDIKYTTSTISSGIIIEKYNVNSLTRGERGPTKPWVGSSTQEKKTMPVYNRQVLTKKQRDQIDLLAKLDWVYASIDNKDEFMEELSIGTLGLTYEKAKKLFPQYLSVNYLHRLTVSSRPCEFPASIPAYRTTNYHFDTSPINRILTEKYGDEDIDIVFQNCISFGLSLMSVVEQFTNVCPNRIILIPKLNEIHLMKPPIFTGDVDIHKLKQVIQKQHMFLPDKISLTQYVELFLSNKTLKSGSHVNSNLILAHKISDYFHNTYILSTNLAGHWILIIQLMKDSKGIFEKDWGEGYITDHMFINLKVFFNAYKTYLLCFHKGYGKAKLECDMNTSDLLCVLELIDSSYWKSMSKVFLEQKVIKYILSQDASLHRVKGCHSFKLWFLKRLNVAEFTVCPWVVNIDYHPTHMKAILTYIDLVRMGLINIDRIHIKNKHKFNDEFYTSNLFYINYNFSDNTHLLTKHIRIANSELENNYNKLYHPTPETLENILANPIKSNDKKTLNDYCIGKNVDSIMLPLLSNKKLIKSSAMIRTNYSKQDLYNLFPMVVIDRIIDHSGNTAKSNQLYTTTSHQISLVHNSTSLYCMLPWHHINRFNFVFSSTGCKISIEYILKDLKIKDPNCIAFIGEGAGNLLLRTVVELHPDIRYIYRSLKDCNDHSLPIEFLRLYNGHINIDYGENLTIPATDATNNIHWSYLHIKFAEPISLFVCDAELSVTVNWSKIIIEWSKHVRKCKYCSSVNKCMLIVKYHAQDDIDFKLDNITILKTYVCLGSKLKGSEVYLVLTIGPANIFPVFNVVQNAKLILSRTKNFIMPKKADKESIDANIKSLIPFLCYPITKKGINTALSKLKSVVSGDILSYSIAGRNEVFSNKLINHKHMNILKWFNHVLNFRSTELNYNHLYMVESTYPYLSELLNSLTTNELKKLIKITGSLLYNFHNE

SMILES: COc1cc(C(=O)NC[C@](O)(c2cc(C(C)(C)O)c(F)c(-c3ccc(F)cc3)n2)C(F)(F)F)cc2cc(C)nnc12 [JNJ-8003]
- IC50 [1]: > 100 µM
- CC50 [2]: > 25 µM
- inhibition (in words) [3]: negligible inhibition
- CC50 ([4]; Median CC50, LLC-MK2, parallel to HMPV assay): 14 µM
- CC50 ([4]; Median CC50, LLC-MK2, parallel to PIV-1 assay): 18 µM
- CC50 ([4]; Median CC50, LLC-MK2, parallel to PIV-3 assay): 19 µM
- off-rate [5]: 0.0000181 s⁻¹
- on-rate [5]: 2.16e+06 M⁻¹ s⁻¹
- ΔTm at 25 µM [6]: 6 °C
